Data from PubChem BioAssay (NCI).
Where “and” joins values, the source holds several entries; their conditions need not be identical. Equal entries are not always repeated.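 Interpolation was linear, between the two tested concentrations surrounding the appropriate level; five concentrations were tested over 48 hours in 96-well plates. GI50 = concentration required for 50% inhibition of growth. TGI marks complete inhibition of growth.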

Columns and labels:
Assay in all cases: NCI anticancer screen, dose series, 48 h
HCC-2998 colon = tested on: HCC-2998 colon
SNB-75 CNS = tested on: SNB-75 CNS
UACC-62 melanoma = tested on: UACC-62 melanoma
MOLT-4 leukemia = tested on: MOLT-4 leukemia
A549 NSCLC = tested on: A549 NSCLC
TK-10 renal = tested on: TK-10 renal
HOP-92 NSCLC = tested on: HOP-92 NSCLC
K-562 leukemia = tested on: K-562 leukemia
U251 CNS = tested on: U251 CNS
RXF 393 renal = tested on: RXF 393 renal

CCc1nc(N)nc(N)c1-c1ccc(Cl)c(N=CN(C)C)c1
TGI (HCC-2998 colon): > 100 µM
TGI (SNB-75 CNS): > 100 µM
TGI (UACC-62 melanoma): > 100 µM
TGI (MOLT-4 leukemia): > 100 µM
TGI (A549 NSCLC): > 100 µM
TGI (TK-10 renal): > 100 µM
TGI (HOP-92 NSCLC): > 100 µM
TGI (K-562 leukemia): > 100 µM
TGI (U251 CNS): > 100 µM
TGI (RXF 393 renal): > 100 µM

CC(C)c1cc(OCC(O)CO)cc(C(C)C)c1 (centres undefined)
TGI (HCC-2998 colon): > 100 µM
TGI (SNB-75 CNS): > 100 µM
TGI (UACC-62 melanoma): > 100 µM
TGI (MOLT-4 leukemia): > 100 µM
TGI (A549 NSCLC): > 100 µM
TGI (TK-10 renal): > 100 µM
TGI (HOP-92 NSCLC): > 100 µM
TGI (K-562 leukemia): > 100 µM
TGI (U251 CNS): > 100 µM
TGI (RXF 393 renal): > 100 µM

Cn1c(=O)c(Oc2ccc(F)cc2F)cc2cnc(NCCS(C)(=O)=O)nc21
GI50 (HCC-2998 colon): > 25 µM
TGI (HCC-2998 colon): > 25 µM
GI50 (SNB-75 CNS): > 25 µM
TGI (SNB-75 CNS): > 25 µM
GI50 (UACC-62 melanoma): > 25 µM
TGI (UACC-62 melanoma): > 25 µM
GI50 (MOLT-4 leukemia): > 25 µM
TGI (MOLT-4 leukemia): > 25 µM
GI50 (A549 NSCLC): > 25 µM
TGI (A549 NSCLC): > 25 µM
GI50 (TK-10 renal): > 25 µM
TGI (TK-10 renal): > 25 µM
GI50 (HOP-92 NSCLC): > 25 µM
TGI (HOP-92 NSCLC): > 25 µM
GI50 (K-562 leukemia): > 25 µM
TGI (K-562 leukemia): > 25 µM
GI50 (U251 CNS): > 25 µM
TGI (U251 CNS): > 25 µM
GI50 (RXF 393 renal): > 25 µM
TGI (RXF 393 renal): > 25 µM

O=C(Nc1ccc(I)cc1F)c1cc(Cl)ccc1O
GI50 (HCC-2998 colon): 3.14 µM
TGI (HCC-2998 colon): 10.1 µM
GI50 (SNB-75 CNS): 0.308 µM
TGI (SNB-75 CNS): 2.36 µM
GI50 (UACC-62 melanoma): 0.273 µM
TGI (UACC-62 melanoma): 1.05 µM
GI50 (MOLT-4 leukemia): 1.44 µM
TGI (MOLT-4 leukemia): 5.22 µM
GI50 (A549 NSCLC): 2.73 µM
TGI (A549 NSCLC): > 100 µM
GI50 (TK-10 renal): 1.13 µM
TGI (TK-10 renal): 16.3 µM
GI50 (HOP-92 NSCLC): 0.167 µM
TGI (HOP-92 NSCLC): 0.505 µM
GI50 (K-562 leukemia): 0.429 µM
TGI (K-562 leukemia): > 100 µM
GI50 (U251 CNS): 0.59 µM
TGI (U251 CNS): > 100 µM
GI50 (RXF 393 renal): 0.507 µM
TGI (RXF 393 renal): 3.07 µM

O=C1c2nc3n(c2C(=O)c2c1nc1n2CCC1)CCC3
TGI (HCC-2998 colon): 21 µM
TGI (SNB-75 CNS): 28.9 µM
GI50 (UACC-62 melanoma): 2.21 µM
TGI (UACC-62 melanoma): 5.5 µM and 3.65 µM
TGI (MOLT-4 leukemia): > 67.6 µM
GI50 (A549 NSCLC): 5.11 µM
TGI (A549 NSCLC): 18.1 µM
TGI (TK-10 renal): > 77.2 µM
TGI (HOP-92 NSCLC): 26.3 µM
TGI (K-562 leukemia): > 57.8 µM
TGI (U251 CNS): 34 µM
TGI (RXF 393 renal): 9.59 µM

CC(CCCOC(c1ccccc1)(c1ccccc1)c1ccccc1)OC(=O)Nc1ccccc1 (centres undefined)
TGI (HCC-2998 colon): 27.3 µM
TGI (SNB-75 CNS): 27.9 µM
TGI (UACC-62 melanoma): 25.5 µM
TGI (MOLT-4 leukemia): 24 µM
TGI (A549 NSCLC): 23.2 µM
TGI (TK-10 renal): 34.7 µM
TGI (HOP-92 NSCLC): 21.7 µM
TGI (K-562 leukemia): 32.4 µM
TGI (U251 CNS): 26.8 µM
TGI (RXF 393 renal): 26.5 µM

CO[C@H]1CC(c2ccc[nH]2)=N[C@]12O[C@@H](C)C[C@@H]1CCCCCCCc3ccc([nH]3)[C@H]12
GI50 (HCC-2998 colon): 0.814 µM
TGI (HCC-2998 colon): 5.54 µM
GI50 (SNB-75 CNS): 0.825 µM
TGI (SNB-75 CNS): 2.79 µM
GI50 (UACC-62 melanoma): 0.659 µM
TGI (UACC-62 melanoma): 1.45 µM
GI50 (MOLT-4 leukemia): 1.01 µM
TGI (MOLT-4 leukemia): 13.6 µM
GI50 (A549 NSCLC): 1.04 µM
TGI (A549 NSCLC): 7.31 µM
GI50 (TK-10 renal): 2.33 µM
TGI (TK-10 renal): > 29.6 µM
GI50 (HOP-92 NSCLC): 0.8 µM
TGI (HOP-92 NSCLC): 4.81 µM
GI50 (K-562 leukemia): 0.821 µM
TGI (K-562 leukemia): > 24.2 µM
GI50 (U251 CNS): 1.14 µM
TGI (U251 CNS): 17.3 µM
GI50 (RXF 393 renal): 0.807 µM
TGI (RXF 393 renal): 7.53 µM

COC(=O)CCC(=O)NC1C2CC3CC(C2)CC1C3 (centres undefined)
TGI (HCC-2998 colon): > 100 µM
TGI (SNB-75 CNS): > 95.4 µM
TGI (UACC-62 melanoma): > 100 µM
TGI (MOLT-4 leukemia): > 100 µM
TGI (A549 NSCLC): > 100 µM
TGI (TK-10 renal): > 100 µM
TGI (HOP-92 NSCLC): > 100 µM
TGI (K-562 leukemia): > 100 µM
TGI (U251 CNS): > 100 µM
TGI (RXF 393 renal): > 100 µM

O=C1OC(c2ccccc2)=N/C1=C\c1cccc(F)c1
TGI (HCC-2998 colon): > 100 µM
TGI (SNB-75 CNS): > 100 µM
TGI (UACC-62 melanoma): > 100 µM
TGI (MOLT-4 leukemia): 67.9 µM
TGI (A549 NSCLC): > 100 µM
TGI (TK-10 renal): > 100 µM
TGI (HOP-92 NSCLC): > 100 µM
TGI (K-562 leukemia): > 100 µM
TGI (U251 CNS): > 100 µM
TGI (RXF 393 renal): > 100 µM

CCOC(OC1=C(C#N)CCCC1)C(C)[Se]c1ccccc1 (centres undefined)
TGI (HCC-2998 colon): > 100 µM
TGI (SNB-75 CNS): > 100 µM
TGI (UACC-62 melanoma): 63.2 µM
TGI (MOLT-4 leukemia): 79.9 µM
TGI (A549 NSCLC): > 100 µM
TGI (TK-10 renal): > 100 µM
TGI (HOP-92 NSCLC): 67.3 µM
TGI (K-562 leukemia): > 100 µM
TGI (U251 CNS): 32 µM
TGI (RXF 393 renal): 29.8 µM

CC(=O)C1=CCC2c3[nH]c4ccccc4c3CCN2C1 (centres undefined)
TGI (HCC-2998 colon): > 100 µM
TGI (SNB-75 CNS): 88.3 µM
TGI (MOLT-4 leukemia): > 100 µM
TGI (A549 NSCLC): > 100 µM
TGI (TK-10 renal): > 100 µM
TGI (HOP-92 NSCLC): > 100 µM
TGI (K-562 leukemia): 91.3 µM
TGI (U251 CNS): > 100 µM
TGI (RXF 393 renal): > 100 µM

Oc1ccc(Cl)cc1CNc1nc2ccccc2[nH]1
GI50 (HCC-2998 colon): 16.5 µM
TGI (HCC-2998 colon): 32 µM
GI50 (SNB-75 CNS): 4.58 µM
TGI (SNB-75 CNS): 21.6 µM
GI50 (UACC-62 melanoma): 13.8 µM
TGI (UACC-62 melanoma): 27.6 µM
GI50 (MOLT-4 leukemia): 10.7 µM
TGI (MOLT-4 leukemia): > 100 µM
GI50 (A549 NSCLC): 12.7 µM
TGI (A549 NSCLC): 30.2 µM
GI50 (TK-10 renal): 15.7 µM
TGI (TK-10 renal): 31.2 µM
GI50 (HOP-92 NSCLC): 2.37 µM
TGI (HOP-92 NSCLC): 10.4 µM
GI50 (K-562 leukemia): 15.4 µM
TGI (K-562 leukemia): 56 µM
GI50 (U251 CNS): 11.7 µM
TGI (U251 CNS): 24.5 µM
GI50 (RXF 393 renal): 10.3 µM
TGI (RXF 393 renal): 23.9 µM

CCOC(=O)c1c(C)c(C)n2c1NC(=O)C2
TGI (HCC-2998 colon): > 100 µM
TGI (SNB-75 CNS): > 74.7 µM
TGI (UACC-62 melanoma): > 100 µM
TGI (MOLT-4 leukemia): > 100 µM
TGI (A549 NSCLC): > 100 µM
TGI (TK-10 renal): > 89.4 µM
TGI (HOP-92 NSCLC): > 100 µM
TGI (K-562 leukemia): > 100 µM
TGI (U251 CNS): 97.7 µM
TGI (RXF 393 renal): > 78.2 µM

COc1ccc(CCNCCCC2c3ccccc3-c3ccccc32)cc1OC
TGI (HCC-2998 colon): 3.88 µM
TGI (SNB-75 CNS): 27.2 µM
TGI (UACC-62 melanoma): 30.3 µM
TGI (MOLT-4 leukemia): 41.8 µM
TGI (A549 NSCLC): 31.4 µM
TGI (TK-10 renal): 27.7 µM
TGI (HOP-92 NSCLC): 18.2 µM
TGI (K-562 leukemia): 49.2 µM
TGI (U251 CNS): 26.2 µM
TGI (RXF 393 renal): 26.1 µM

O=C(NO)c1ccc(O)c(O)c1
TGI (HCC-2998 colon): > 100 µM
TGI (SNB-75 CNS): > 100 µM
TGI (UACC-62 melanoma): > 100 µM
TGI (MOLT-4 leukemia): > 100 µM
TGI (A549 NSCLC): > 100 µM
TGI (TK-10 renal): > 100 µM
TGI (HOP-92 NSCLC): > 100 µM
TGI (K-562 leukemia): 93.8 µM
TGI (U251 CNS): > 100 µM
TGI (RXF 393 renal): > 100 µM

C=C1c2c(Cl)ccc(O)c2C(O)=C2C(=O)[C@]3(O)C(O)=C(C(N)=O)C(=O)[C@@H](N(C)C)[C@@H]3[C@@H](O)[C@H]12
GI50 (HCC-2998 colon): 1.32 µM
TGI (HCC-2998 colon): 5.61 µM
GI50 (SNB-75 CNS): 0.845 µM
TGI (SNB-75 CNS): 3.61 µM
GI50 (UACC-62 melanoma): 0.79 µM
TGI (UACC-62 melanoma): 2.73 µM
GI50 (MOLT-4 leukemia): 1.89 µM
TGI (MOLT-4 leukemia): 12.3 µM
GI50 (A549 NSCLC): 1.39 µM
TGI (A549 NSCLC): 16.6 µM
GI50 (TK-10 renal): 0.656 µM
TGI (TK-10 renal): 3.41 µM
GI50 (HOP-92 NSCLC): 0.669 µM
TGI (HOP-92 NSCLC): 2.16 µM
GI50 (K-562 leukemia): 1.66 µM
TGI (K-562 leukemia): > 50 µM
GI50 (U251 CNS): 0.949 µM
TGI (U251 CNS): 4.09 µM
GI50 (RXF 393 renal): 0.534 µM
TGI (RXF 393 renal): 2.82 µM

CC(C)CCN[C@@H]1CCc2cc(O)c(N3CC(=O)NS3(=O)=O)c(F)c2C1
GI50 (HCC-2998 colon): > 100 µM
TGI (HCC-2998 colon): > 100 µM
GI50 (SNB-75 CNS): 1.17 µM
TGI (SNB-75 CNS): > 100 µM
GI50 (MOLT-4 leukemia): > 100 µM
TGI (MOLT-4 leukemia): > 100 µM
GI50 (A549 NSCLC): > 100 µM
TGI (A549 NSCLC): > 100 µM
GI50 (TK-10 renal): > 100 µM
TGI (TK-10 renal): > 100 µM
GI50 (HOP-92 NSCLC): 16.1 µM
TGI (HOP-92 NSCLC): > 100 µM
GI50 (K-562 leukemia): > 100 µM
TGI (K-562 leukemia): > 100 µM
GI50 (U251 CNS): > 100 µM
TGI (U251 CNS): > 100 µM
GI50 (RXF 393 renal): 0.812 µM
TGI (RXF 393 renal): 8.01 µM
